Experimental data published in paper PMC11044151, “Development of Half-Sandwich Ru, Os, Rh, and Ir Complexes Bearing the Pyridine-2-ylmethanimine Bidentate Ligand Derived from 7-Chloroquinazolin-4(3H)-one with Enhanced Antiproliferative Activity” (ACS Omega, 2024).

Assays:
[1] = Stability study in the presence of L-cysteine (UV-vis, HPLC-MS); type: physicochemical; details: 20 μM complex, 0.2 mM L-cysteine in water, 0.5 vol % DMSO, followed over 2 h
Excerpt: For biological studies, compounds are commonly administered as dimethyl sulfoxide (DMSO) solution to cells cultured in a specific medium such as Dulbecco’s modified Eagle’s medium (DMEM). DMEM consists of numerous organic compounds which may act as ligands for organometallics. Therefore, it is important to know how the compounds behave in such conditions. The two most prominent components of DMEM which may coordinate to half-sandwich complexes are L-cysteine and L-histidine. Both of those amino acids are present in DMEM at 0.2 mM concentration, so we studied how the complexes interact with them using UV–vis spectroscopy and HPLC-MS analysis. The DMSO solutions of complexes were added to the aqueous solution of L-cysteine or L-histidine to achieve a complex concentration of 20 μM while keeping the DMSO concentration at 0.5 vol %. […] HPLC-MS analysis confirmed the formation of an additional peak at τ = 0.95 min with m/z 714 assigned to [M-Cl-PF6 + HCOOH]^+; additionally, the intensity of peaks corresponding to 3c is lower (Figure S26). […] The intensity of absorbance peaks at λ = 287 and λ = 372 nm in the presence of cysteine is decreasing, while the intensity of peaks at λ = 304 and λ = 318 nm is almost intact.
The stability of 3a–d was studied in the presence of L-cysteine or L-histidine. 3a–d were dissolved in DMSO and added to 0.2 mM aqueous solution of L-cysteine or L-histidine to achieve the complex concentration of 20 μM while keeping the DMSO concentration at 0.5 vol %. UV–vis spectra were recorded over 2 h with 10 min intervals.

SW620 cells = assay: Cell cycle distribution by flow cytometry, SW620; type: cell-based, human; details: concentration equal to IC75 of (S)-1 / (R)-1, mean ± SEM, n = 3; for Cell cycle fraction G1, 24 h / Cell cycle fraction G2/M, 24 h / Cell cycle fraction S, 24 h: SW620, 24 h; for Cell cycle fraction G1, 48 h / Cell cycle fraction G2/M, 48 h / Cell cycle fraction S, 48 h: SW620, 48 h
Method: Ispinesib leads to the formation of monopolar mitotic spindles and a blockade of chromosome segregation in cancer cells. Using flow cytometry, we assessed the cell cycle distribution in the SW620 and SW620E cells exposed to the studied compounds for 24 and 48 h. […] Both complexes, 3c and 3d, decrease the percentage of cells in the G1/G0 phase and increase the percentage in the S and G2/M phases. […] Furthermore, prolonged exposure to the compounds increases the percentage of cells in the G2/M phase, with the most intensive effect observed for 3c and 3d.
SW620 and SW620E cells lines (vulnerable and resistant variants, respectively) were seeded in 6-well plates at a density of 10^5 cells per well. […] After 24 h, the cells were trypsinized and fixed with ice-cold 70% v/v ethanol. The cells were stained with 75 μM propidium iodide with 50 Kunitz units of RNase A in PBS for 30 min at 37 °C. All samples were analyzed using a LSRII flow cytometer (Becton Dickinson) at a PE channel ([…]). Cell cycle phase distribution was determined using a built-in cell cycle module (Watson pragmatic algorithm) by FlowJo 7.6.1 software.

SW620M = assay: Neutral red uptake antiproliferative assay, MDR line SW620M; type: cell-based, human; details: for IC50: exposure time 72 h, n = 3, ABCC1-overexpressing MDR line; for activity factor IC50(1)/IC50(3a–4d), SW620M: vs corresponding amine (R)-1 or (S)-1, 72 h
Excerpt: (§1) Next, we evaluated the cytotoxicity of the synthesized complexes toward the panel of six multidrug-resistant (MDR) cell lines derived from SW620 and characterized by the overexpression of various ABC proteins, namely, ABCG2 (SW620C and SW620Mito), ABCC1 (SW620M and SW620E), and ABCB1 (SW620D, SW620E, and SW620V) (Table 3, Figures S29 and S32). […] The activity of the complexes derived from the ligand (S)-2 is also considerably higher than that of the compounds containing the ligand (R)-2. The cytotoxicity of both rhodium 4c and iridium 4d complexes is higher than that of amine (S)-1. In the case of 4c, the increase in cytotoxicity is low, with the highest value of 3.7-fold for the SW620Mito line. […] Compound 4d also exerts a 2.1- and 2.6-fold higher cytotoxicity than […] against the SW620C and SW620D lines.
(§2) For this purpose, neutral red uptake assay was performed. […] The results were presented as a percentage of control.

SW620C = assay: Neutral red uptake antiproliferative assay, MDR line SW620C; type: cell-based, human; details: for IC50: exposure time 72 h, n = 3, ABCG2-overexpressing MDR line; for activity factor IC50(1)/IC50(3a–4d), SW620C: vs corresponding amine (R)-1 or (S)-1, 72 h
Excerpt: as §1, §2

HCT116 = assay: cells; details: for IC50: read-out: IC50 HCT116, exposure time 72 h, n = 3, 95% CI given; for activity factor IC50(1)/IC50(3a–4d), HCT116: vs corresponding amine (R)-1 or (S)-1, 72 h
Excerpt: To assess the impact of conjugating half-sandwich complexes with amines 1 via an imine-pyridine ligand on biological activity, we examined the antiproliferative potential of (R)- and (S)-1 and organometallic conjugates 3a–d and 4a–d in selected human cancer cell lines: alveolar basal epithelial cell adenocarcinoma (A549), colorectal adenocarcinomas (Colo205 and SW620), colorectal carcinoma (HCT116), hepatocellular carcinoma (HepG2), and breast adenocarcinoma (MCF7). The choice of cell lines was dictated by results of previously published clinical trials on ispinesib.[49],[50]
For this purpose, neutral red uptake assay was performed. 10^4 of cells were seeded per well of a 96-well plate and left overnight to allow cells to attach to the surface. Then, the cells were exposed to a desired concentration of tested compounds. Stock solutions were prepared in DMSO and were used immediately after preparation. The final concentration of DMSO was constant and nontoxic (0.1% v/v). After 70 h of culture, neutral red was added to the final concentration of 1 mM. After 2 h of incubation with the dye, the medium was aspirated and cells were washed with ice-cold PBS. The dye was released using 100 μL of the solubilizer (1% acetic acid in 50% ethanol) on an orbital shaker (10 min). The absorbance at 540 nm was measured using an EnVision multilabel plate reader (PerkinElmer). […] The IC90 and IC50 parameters were calculated using GraphPad Prism v9 software using the five-parameter nonlinear logistic regression model.

| SMILES | reaction with L-cysteine (stability) [1] | Cell cycle fraction G1, 24 h (SW620 cells) [%] | Cell cycle fraction G2/M, 24 h (SW620 cells) [%] | Cell cycle fraction S, 24 h (SW620 cells) [%] | Cell cycle fraction G1, 48 h (SW620 cells) [%] | Cell cycle fraction G2/M, 48 h (SW620 cells) [%] | Cell cycle fraction S, 48 h (SW620 cells) [%] | IC50 (SW620M) [nM] | activity factor IC50(1)/IC50(3a–4d), SW620M (SW620M) | IC50 (SW620C) [nM] | activity factor IC50(1)/IC50(3a–4d), SW620C (SW620C) | IC50 (HCT116) [nM] | activity factor IC50(1)/IC50(3a–4d), HCT116 (HCT116) | higher cytotoxicity than corresponding amine 1, SW620C (SW620C; rounded value) [fold] |
| --- | --- | --- | --- | --- | --- | --- | --- | --- | --- | --- | --- | --- | --- | --- |
| CC(C)[C@@H](N=Cc1ccccn1)c1nc2cc(Cl)ccc2c(=O)n1Cc1ccccc1.Cc1ccc(C(C)C)cc1.F[P-](F)(F)(F)(F)F.[Cl-].[Os+2] [Compound 3b, [(cym)Os((R)-2)Cl]PF6] | neither ruthenium 3a nor the osmium complex 3b reacts with those amino acids within 2 h | 51.4 ± 1.2 | 35.3 ± 1.4 | 12.5 ± 2.1 | 41.4 ± 0.7 | 45.0 ± 0.5 | 12.7 ± 1.1 | 591 | (0.408) | 1170 | (0.616) | 424 | (0.816) |  |
| CC(C)[C@@H](N=Cc1ccccn1)c1nc2cc(Cl)ccc2c(=O)n1Cc1ccccc1.Cc1c(C)c(C)[c-](C)c1C.F[P-](F)(F)(F)(F)F.[Cl-].[Rh+3] [Compound 3c, [(Cp*)Rh((R)-2)Cl]PF6] | slowly reacts with L-cysteine | 33.9 ± 2.5 | 40.9 ± 3.5 | 24.2 ± 1.4 | 23.1 ± 1.7 | 54.5 ± 1.8 | 20.8 ± 2.2 | 1180 | (0.204) | 592 | (1.22) | 173 | (2.00) |  |
| CC(C)[C@@H](N=Cc1ccccn1)c1nc2cc(Cl)ccc2c(=O)n1Cc1ccccc1.Cc1ccc(C(C)C)cc1.F[P-](F)(F)(F)(F)F.[Cl-].[Ru+2] [Compound 3a, [(cym)Ru((R)-2)Cl]PF6] | neither ruthenium 3a nor the osmium complex 3b reacts with those amino acids within 2 h | 51.9 ± 1.0 | 32.5 ± 1.5 | 14.9 ± 0.6 | 44.8 ± 0.7 | 40.2 ± 1.1 | 14.3 ± 0.4 | 3450 | (0.070) | 4380 | (0.165) | 2880 | (0.120) |  |
| CC(C)[C@@H](N=Cc1ccccn1)c1nc2cc(Cl)ccc2c(=O)n1Cc1ccccc1.Cc1c(C)c(C)[c-](C)c1C.F[P-](F)(F)(F)(F)F.[Cl-].[Ir+3] [Compound 3d, [(Cp*)Ir((R)-2)Cl]PF6] | reacts with both L-cysteine and L-histidine (Figure 6) in 40 min | 30.8 ± 0.8 | 43.4 ± 1.5 | 25.4 ± 0.8 | 24.3 ± 1.2 | 55.9 ± 1.1 | 19.3 ± 0.4 | 247 | (0.976) | 335 | (2.15) | 476 | (0.727) | 2.2 |
